The subject of data set [1] is mouse embryonic stem cells (mESCs). The data set is described as follows: mESC cell viability by CCK-8 assay and crystal violet dye. It is filed as cell-based. The settings on record: CCK-8. As for the experimental part: In a 60 mm cell culture dish coated with 0.1% gelatin (Sigma), mouse ES cells were cultured in a medium DMEM (Hyclone), to which 2 mM L-glutamine (Mediatech Inc.), 1% penicillin/streptomycin (Mediatech Inc.), 15% heat-inactivated fetal bovine serum (Hyclone), 20 mM HEPES-pH 7.3 (Cellgro), 0.1 mM MEM non-essential amino acid (Cellgro), 0.1 mM 2-mercaptoethanol (Sigma) and 1000 U/mL LIF (Millipore) are added, in order to prevent differentiation.
Mouse ES cells were seeded by 8×10^4 cells per well in a 96-well plate containing the above various cryopreservation solutions. After 9 hours, CCK-8 reagent was added and fluorescence intensity was measured using an ELISA Reader (TECAN).
[…] Cells were washed with 500 μL of PBS and 500 μL of 4% PFA was added thereto for 15 minutes. The fixed cells were washed twice with 500 μL of PBS and 0.5% crystal violet solution was added thereto for 30 minutes. The stained cells were washed with tap water.
Background: Tetrazolium dyes change colour on reduction, which living cells bring about.

For a further data set, the system named is sperms. The data set is described as follows: Sperm cryopreservation followed by in vitro fertilization and embryo culture. The format is cell-based, C57BL/6J mice. The settings on record: sperms frozen in 3% skim milk containing 10 to 20 μM. As for the experimental part: To cryopreserve sperms, a modified 18% raffinose pentahydrate/3% skim milk (Difco, Becton Dickinson) solution containing 100 mM L-glutamine or skim milk, to which a cryoprotectant according to the present invention was added, was prepared. A human tubal fluid (HTF) medium was used during the IVF process, and a potassium simplex optimized medium (PSOM) was used while 2-cell embryo was cultured to a blastocyst stage.
A sperm cryopreservation solution dispensed in 60 μL was placed in a 35 mm culture dish and covered with paraffin oil. After male mice were sacrificed with […], a tail of epididymis was removed and divided into pieces, and all fats and blood were removed while observing under a microscope before transferring to the cryopreservation solution. The culture dish was kept at 37° C. for 3 minutes and gently stirred every minute to allow sperms to disperse from the tissues. […]
Frozen sperms were thawed under various conditions, then added to IVF drops containing eggs and incubated at 37° C. […] After 24 hours from fertilization, a fertilization rate was calculated using the total number of 2-cell embryos as a percentage based on the total number of eggs.
After performing IFV, 2-cell embryos were classified into a group to be cultured in the blastocyst stage and a group to be implanted in the oviduct of ICR females. After giving birth, the number of pups was recorded. […]

Data set [2] is described as follows: Gold nanoparticle (MPA-AuNP) colorimetric freeze/thaw assay for TH and IRI activity. The settings on record: 50 μL of 0.5 mM sample in 350 μL of 300 μM MPA-AuNP, -65 °C 23 min. As for the experimental part:
Thermal hysteresis (TH) as anti-freezing activity was measured in accordance with the method described in Park, J.-I., Lee, J. H., Gwak, Y., Kim, H. J., Jin, E., & Kim, Y.-P. (2013). Frozen assembly of gold nanoparticles for rapid analysis of antifreeze protein activity. Biosensors and Bioelectronics, 41, 752-757, and ice recrystallization inhibition (IRI) activity was measured based on Mitchell, D. E., Congdon, T., Rodger, A., & Gibson, M. I. (2015). Gold Nanoparticle Aggregation as a Probe of Antifreeze (Glyco) Protein-Inspired Ice Recrystallization Inhibition and Identification of New IRI Active Macromolecules. Scientific Reports, 5(1). More specifically, when dispersing AFP in a solution in which gold nanoparticles are dispersed, and freezing the solution then thawing again, if the AFP has good conjugating force with an ice crystal surface, the dispersibility of gold nanoparticles is good to maintain an original color of the solution, whereas if it has weak conjugating force, AFP is precipitated, and when ice crystals are rapidly formed, the solution is subjected to color change.
Gold nanoparticles (Cit-AuNP) stabilized with citric acid were synthesized to prepare mercaptopropionic acid (MPA)-AuNP. 20 mL of a storage solution containing 1 mM HAuCl4·3H2O was added to 50 mL of deionized water (DI water). After the solution was stirred and heated to a boiling point, 30 mM sodium citric acid in 2 mL of deionized water was further added to the solution and heated for 20 minutes. The color of the solution changed from bright yellow to burgundy. […] An average size of MPA-capped AuNP was measured to be about 16.7 nm.
On a microwell plate, 50 μL of a solution containing 0.5 mM sample was added to 350 μL of 300 μM MPA-AuNP solution, respectively. […] To quantitatively confirm the color change before and after freezing, absorption spectra of each mixture were measured with a UH5300 spectrometer before and after freezing. The spectra were measured from 300 nm to 900 nm at a scan speed of 400 nm/min, and aggregation properties (E525/E650) of each mixture were compared. […]

The nature of data set [3]: Ice recrystallization inhibition (IRI) splat assay, MLGS from DFOM images. To be noted: ice recrystallized 30 minutes at -6 °C. As for the experimental part:
In order to more clearly confirm the effect of inhibiting ice crystal growth, ice recrystallization inhibition (IRI) characteristics were analyzed. Analysis of ice recrystallization was performed by reference Mitchell, D. E., Clarkson, G., Fox, D. J., Vipond, R. A., Scott, P., & Gibson, M. I. (2017). Antifreeze Protein Mimetic Metallohelices with Potent Ice Recrystallization Inhibition Activity. Journal of the American Chemical Society, 139(29), 9835-9838 and Budke, C., Heggemann, C., Koch, M., Sewald, N., & Koop, T. (2009). Ice Recrystallization Kinetics in the Presence of Synthetic Antifreeze Glycoprotein Analogues Using the Framework of LSW Theory. The Journal of Physical Chemistry B, 113(9), 2865-2873. More specifically, a 10 μL sample was dropped from a height of 1.5 m onto a surface of a cover glass precooled to −60° C. so as to form a thin film of ice. […] During recrystallization of ice, dark-field optical microscopy (DFOM) images were taken, and ten of the largest ice crystal domains were chosen and a mean value thereof was obtained to evaluate the IRI activity. A mean largest grain size (MLGS) analysis was repeated three times.

Bounds are passed on as bounds.

For the compound `CC(O)C(NC(=O)C(CC1=c2ccccc2=NC1)NC(=O)C(CC1=CN=C2C=CC=CC12)NC(=O)OCC1c2ccccc2-c2ccccc21)C(N)=O` (stereo not shown) [Fmoc-WWT], the “cell viability with respect to mESC” value in data set [1] is on record as “significant cell viability”. Besides, the “rate of 2-cell embryo formation” value in the data set on sperms is not below 77%. In data set [2], the “aggregation of gold particles after freezing/thawing (absorption peak shift 525 nm to 650 nm)” value is recorded as “an aggregation phenomenon was exhibited”. For the same compound, the IRI effect entry in data set [3] is reported as “had IRI effects”.

For the origin of these results see US12133523B2, “Anti-freezing composition comprising self-assembly compound” (Korea University Research and Business Foundation, priority 2019, dated 2024).
